Measured values: PubChem BioAssay (NCI)
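A five-concentration, 48-hour dose response in 96-well plates underlies each endpoint, interpolated linearly between surrounding concentrations. TGI: concentration producing complete growth inhibition.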

Assays:
Experiment in all cases: inhibition of tumour cell growth, NCI panel, 48 h
UACC-257 melanoma = system: UACC-257 melanoma
NCI-H460 lung = system: NCI-H460 lung
EKVX NSCLC = system: EKVX NSCLC
TK-10 renal = system: TK-10 renal
SK-MEL-28 melanoma = system: SK-MEL-28 melanoma
OVCAR-5 ovarian = system: OVCAR-5 ovarian
786-0 renal = system: 786-0 renal
SK-MEL-2 melanoma = system: SK-MEL-2 melanoma
A549 NSCLC = system: A549 NSCLC
K-562 leukemia = system: K-562 leukemia
HOP-92 NSCLC = system: HOP-92 NSCLC
A498 renal = system: A498 renal
T-47D breast = system: T-47D breast
BT-549 breast = system: BT-549 breast
SNB-75 CNS = system: SNB-75 CNS
HOP-18 NSCLC = system: HOP-18 NSCLC
RPMI-8226 leukemia = system: RPMI-8226 leukemia
M14 melanoma = system: M14 melanoma
LXFL 529 NSCLC = system: LXFL 529 NSCLC
CCRF-CEM leukemia = system: CCRF-CEM leukemia
KM20L2 colon = system: KM20L2 colon
SW-620 colon = system: SW-620 colon
SK-MEL-5 melanoma = system: SK-MEL-5 melanoma
XF 498 CNS = system: XF 498 CNS
MDA-MB-435 = system: MDA-MB-435
OVCAR-4 ovarian = system: OVCAR-4 ovarian
MCF7 breast = system: MCF7 breast
UACC-62 melanoma = system: UACC-62 melanoma
U251 CNS = system: U251 CNS
KM12 colon = system: KM12 colon
COLO 205 colon = system: COLO 205 colon
DMS 273 small cell lung = system: DMS 273 small cell lung
HL-60(TB) leukemia = system: HL-60(TB) leukemia
MDA-MB-231 breast = system: MDA-MB-231 breast
HCT-116 colon = system: HCT-116 colon
RXF 393 renal = system: RXF 393 renal
SF-295 CNS = system: SF-295 CNS
DU-145 prostate = system: DU-145 prostate
MOLT-4 leukemia = system: MOLT-4 leukemia
NCI-H522 lung = system: NCI-H522 lung
PC-3 prostate = system: PC-3 prostate
HOP-62 NSCLC = system: HOP-62 NSCLC
LOX IMVI melanoma = system: LOX IMVI melanoma
SF-268 CNS = system: SF-268 CNS
SK-OV-3 ovarian = system: SK-OV-3 ovarian
SR leukemia = system: SR leukemia
DLD-1 colon = system: DLD-1 colon
M19-MEL melanoma = system: M19-MEL melanoma
HT29 colon = system: HT29 colon
SNB-19 CNS = system: SNB-19 CNS
HS 578T breast = system: HS 578T breast
HCT-15 colon = system: HCT-15 colon
NCI-H226 lung = system: NCI-H226 lung
RXF-631 renal = system: RXF-631 renal
HCC-2998 colon = system: HCC-2998 colon
DMS 114 small cell lung = system: DMS 114 small cell lung
IGROV1 ovarian = system: IGROV1 ovarian
SN12C renal = system: SN12C renal
NCI-H23 lung = system: NCI-H23 lung
NCI/ADR-RES ovarian = system: NCI/ADR-RES ovarian
UO-31 renal = system: UO-31 renal
SF-539 CNS = system: SF-539 CNS
ACHN renal = system: ACHN renal
CAKI-1 renal = system: CAKI-1 renal
OVCAR-8 ovarian = system: OVCAR-8 ovarian
OVCAR-3 ovarian = system: OVCAR-3 ovarian
SNB-78 CNS = system: SNB-78 CNS
MALME-3M melanoma = system: MALME-3M melanoma
MDA-N = system: MDA-N

What does the source list for Cc1c2cc[n+](C)cc2c(C)c2c1sc1ccccc12?
TGI (UACC-257 melanoma): 7.01 µM; TGI (NCI-H460 lung): 6.02 µM; TGI (EKVX NSCLC): > 50.2 µM; TGI (TK-10 renal): 68.5 µM; TGI (SK-MEL-28 melanoma): 6.15 µM; TGI (OVCAR-5 ovarian): 15.6 µM; TGI (786-0 renal): 2.9 µM; TGI (SK-MEL-2 melanoma): 7.71 µM; TGI (A549 NSCLC): 3.46 µM; TGI (K-562 leukemia): 41.3 µM; TGI (HOP-92 NSCLC): 9.75 µM; TGI (A498 renal): 13.6 µM; TGI (T-47D breast): 3.67 µM; TGI (BT-549 breast): 1.37 µM; TGI (SNB-75 CNS): 0.804 µM; TGI (HOP-18 NSCLC): 36.2 µM; TGI (RPMI-8226 leukemia): 5.68 µM; TGI (M14 melanoma): 14.2 µM; TGI (LXFL 529 NSCLC): 5.13 µM; TGI (CCRF-CEM leukemia): 13.8 µM; TGI (KM20L2 colon): 31.8 µM; TGI (SW-620 colon): 33.1 µM; TGI (SK-MEL-5 melanoma): 4.56 µM; TGI (XF 498 CNS): 2.69 µM; TGI (MDA-MB-435): 6.18 µM; TGI (OVCAR-4 ovarian): 11.4 µM; TGI (MCF7 breast): 41.8 µM; TGI (UACC-62 melanoma): 4.25 µM; TGI (U251 CNS): 1.15 µM; TGI (KM12 colon): 2.97 µM; TGI (COLO 205 colon): 7.71 µM; TGI (DMS 273 small cell lung): 7 µM; TGI (HL-60(TB) leukemia): 28.4 µM; TGI (MDA-MB-231 breast): 11.2 µM; TGI (HCT-116 colon): 23.7 µM; TGI (RXF 393 renal): 12 µM; TGI (SF-295 CNS): 0.783 µM; TGI (DU-145 prostate): 5.07 µM; TGI (MOLT-4 leukemia): 5.57 µM; TGI (NCI-H522 lung): 2.4 µM; TGI (PC-3 prostate): 13.1 µM; TGI (HOP-62 NSCLC): 1.76 µM; TGI (LOX IMVI melanoma): 22.1 µM; TGI (SF-268 CNS): 1.14 µM; TGI (SK-OV-3 ovarian): 14.3 µM; TGI (SR leukemia): 9.54 µM; TGI (DLD-1 colon): 51.2 µM; TGI (M19-MEL melanoma): 4.04 µM; TGI (HT29 colon): 25.4 µM; TGI (SNB-19 CNS): 2 µM; TGI (HS 578T breast): 0.692 µM; TGI (HCT-15 colon): > 100 µM; TGI (NCI-H226 lung): 2.11 µM; TGI (RXF-631 renal): 14.4 µM; TGI (HCC-2998 colon): 6.28 µM; TGI (DMS 114 small cell lung): 2.57 µM; TGI (IGROV1 ovarian): 28.4 µM; TGI (SN12C renal): 0.747 µM; TGI (NCI-H23 lung): 2.29 µM; TGI (NCI/ADR-RES ovarian): > 100 µM; TGI (UO-31 renal): > 90.7 µM; TGI (SF-539 CNS): 2.01 µM; TGI (ACHN renal): 33.7 µM; TGI (CAKI-1 renal): 60.6 µM; TGI (OVCAR-8 ovarian): 4.8 µM; TGI (OVCAR-3 ovarian): 5.43 µM; TGI (SNB-78 CNS): 8.41 µM; TGI (MALME-3M melanoma): 1.92 µM; TGI (MDA-N): 11.3 µM
